{"source": "paper PMC12796071", "about": "“Evaluation of [^18F]MNI-1054, a novel PET ligand for lysine-specific histone demethylase 1A (LSD1), in non-human primates” (EJNMMI Research, 2025)", "biological_target": "LSD1 (Macaca mulatta, UniProt I2CUD2)", "assay": "Brain PET imaging and kinetic analysis of [18F]MNI-1054 (irreversible 2TCM, Patlak)", "format": "in vivo", "set-up": "from tissue; host or cells: brain of living rhesus monkeys (M1, M2), in vivo PET", "conditions": "for Average Ki bias (SD) versus full 180-min scan: baseline studies; for Ki Baseline: cerebellum", "description": "All brain scans were collected over 3 h on a microPET Focus 220 PET scanner (Siemens), with injected doses in the range 167.61–185 MBq. A transmission scan with an external Germanium-68 source was performed prior to the emission scans to estimate attenuation correction coefficients. Discrete arterial blood samples (n = 18–21) were taken throughout the scans to measure the parent fraction, plasma free fraction as well as total plasma and whole-blood activity for tracer kinetic modeling. Detailed procedures are provided in the Supplement.\nM1 and M2 each completed a scan at baseline to assess brain penetration and kinetics and to serve as reference for the blocking and displacement studies. A self-block study with cold 3 mg/kg MNI-1054, starting 5 min prior to [^18F]MNI-1054 administration, was conducted in M1 to assess regional differences in non-specific binding.\nBlocking studies with the LSD1 inhibitor TAK-418 ([…]) were performed to measure the dose-occupancy relationship for this compound. For blocking studies, TAK-418 was administered intravenously 2 h prior to [^18F]MNI-1054. Prior to conducting these blocking studies, a displacement study with TAK-418 (3 mg/kg) was performed to confirm irreversible tracer binding, in which TAK-418 was administered 1.5 h post [^18F]MNI-1054 administration. For all studies involving TAK-418, the test article was administered intravenously over 5 min. Due to the irreversible binding of these compounds to LSD1, the time taken for the enzyme to re-populate was investigated by imaging one animal (M2) with [^18F]MNI-1054 at 24 and 48 h post TAK-418 treatment (0.3 mg/kg). Each animal also underwent a high-resolution T1-weighted structural brain MRI scan with a 3-D MPRAGE sequence on a separate day for anatomical reference.\nEmission data were reconstructed with filtered back projection into a series of 45 temporal frames (6 × 30, 3 × 60, 2 × 120, 34 × 300 s). For each frame, reconstructed images had dimensions of 256 × 256 × 95, voxel size of 0.949 × 0.949 × 0.796 mm and units of kBq/mL. All standard corrections were applied including normalization, random, scatter, dead-time, and attenuation. Dynamic brain PET images were analyzed using an in-house processing pipeline incorporating functionalities from FSL [18] and AFNI [19] as well as custom developed Matlab scripts (Mathworks Inc., Natick, MA, USA). Key steps of the workflow included rigidly aligning the PET images to the same animal’s brain MRI scan and spatially normalizing the MRI volume to the INIA19 [20] and NMT2.0 [21, 22] rhesus MR templates. Volumes of interest (VOIs) masks defined in rhesus MR template spaces were then inverse warped and applied to the PET images in their native orientation to compute time-activity curves (TACs) for the following regions: occipital lobe, temporal lobe, frontal lobe, parietal lobe, olfactory cortex, amygdala, cingulate, hippocampus, thalamus, hypothalamus, cerebellar grey matter, pons, striatum, nucleus accumbens and cerebral white matter. Lobar VOI masks were restricted to grey matter only. All VOI masks were derived from the INIA19 atlas, with the exception of the pons mask which was obtained from the NMT2.0 atlas (Fig. S.2.). The average activity concentration (kBq/mL) within each VOI was determined and TACs representing the regional brain activity concentration over time were generated. Brain TACs and images were presented in SUV units [g/mL] by normalizing activity concentration data [kBq/mL] by the animal’s weight [kg] and injected activity [MBq].\nRegional TACs were modeled with an irreversible 2-tissue compartmental model (‘2TCM’) (k4 = 0) with the arterial input function to determine the tracer binding parameters Ki [mL/cm^3/min] (where Ki= K1. k3/(k2 + k3)) and λ.k3 (where λ = K1/k2), a parameter independent of blood flow and proportional to LSD1 binding site density via k3. […]", "key": {"[1]": {"conditions": "irreversible 2TCM, across all scans and regions"}}, "note": "“Also recorded” adds a separate entry of the source.", "data": [{"smiles": "Cc1cc([18F])ncc1C(=O)Nc1ccc([C@@H]2C[C@H]2NCC2CC2)cc1", "note": "[[^18F]MNI-1054]", "values": [{"measurement": "displacement of tracer (change in TACs)", "setting": "3.0 mg/kg TAK-418 given 90 min post tracer injection, M1", "result": "no observable change in the TACs; also recorded: did not displace"}, {"measurement": "Average Ki bias (SD) versus full 180-min scan", "setting": "120-min scan duration", "result": "8.3 +/- 6.1%"}, {"measurement": "Average Ki bias (SD) versus full 180-min scan", "setting": "150-min scan duration", "result": "3.2 +/- 2.8%"}, {"measurement": "difference Ki,Patlak versus Ki,2TCMirrev, mean +/- SD", "setting": "Patlak t* = 30 min, all studies and regions", "result": "−0.00494 +/- 0.00348 mL/cm^3/min"}, {"measurement": "Regional Ki in displacement study compared with baseline", "setting": "TAK-418 3 mg/kg 1.5 h post tracer, same animal", "result": "did not substantially vary"}, {"measurement": "Ki Baseline", "setting": "animal M1", "result": 0.058, "unit": "mL/cm^3/min"}, {"measurement": "Ki Baseline", "setting": "animal M2", "result": 0.047, "unit": "mL/cm^3/min"}, {"measurement": "k2/k3, max", "setting": "[1]", "result": 194.4}, {"measurement": "k2/k3, mean (SD)", "setting": "[1]", "result": "24.7 (28.6)"}, {"measurement": "k2/k3, min", "setting": "[1]", "result": 6.1}]}]}
